# Values of other authors as cited in US20070031570A1, “Hydrothermically processed compositions containing phytosterols” (Archer-Daniels-Midland Company, priority 2002, published 2007).
# Read-outs that look alike come from different tables or passages of the source.
# Assays:
# [1] = not given; remark: listed apart in the source
# [2] = 2.8 g sitostanol/day given as sitostanol ester in margarine
compound,measurement,setting,value
CC[C@H](CC[C@@H](C)[C@H]1CC[C@H]2[C@@H]3CC[C@H]4C[C@@H](O)CC[C@]4(C)[C@H]3CC[C@]12C)C(C)C [sitostanol],effect on serum cholesterol,"subjects with moderate hypercholesterolemia, 3 g/day",no effect
same,reduced serum cholesterol,"subjects with severe hypercholesterolemia, 1.5 g/day",15%
same,reduces cholesterol absorption,[1]; delivery system which avoids an oil phase ('562 and '776 patents),≤ 37%
CC[C@H](CC[C@@H](C)[C@H]1CC[C@H]2[C@@H]3CC=C4C[C@@H](O)CC[C@]4(C)[C@H]3CC[C@]12C)C(C)C [sitosterol],decrease serum cholesterol levels,"dose-response study, 3-9 g/day of powdered sitosterol",12%
same,reduced serum cholesterol,doses of 5-18 g sitosterol/day,16-20%
neomycin,effect on cholesterol absorption,[1]; orally-administered,reduces cholesterol absorption effectively
sitostanol ester,less effective at reducing cholesterol absorption compared to the unesterified sterol,"[1]; humans, dissolved in dietary fat",21%
same,reduced LDL cholesterol,[2],16%
